For orientation: pIC50 means −log10 of the IC50, conventionally taken in molar units.

Results on 22 compounds are retold here after patent publication US20260078120A1, “SUBSTITUTED PYRIDOPYRIMIDINONES” (MIRATI THERAPEUTICS, INC., priority 2022, published 2026).

Test [1] deals with T47D (PI3Kα H1047R mutant) cells. Nature of the test: CellTiter-Glo 2.0 luminescent cell viability assay, 72 hours, T47D cells. It counts as cell-based. The following applies: T47D (PI3Kα H1047R mutant) cells, CellTiter-Glo, approximately 72 hours, read-out: T47D (H1047R mutant) Viability IC50. Summed up:
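Cells seeded at 1000 per well overnight were dosed with a 10-concentration, 1:4 series starting at 10 µM and incubated ~72 h at 37° C. Viability was read by CellTiter-Glo 2.0 luminescence after 30 min at room temperature. IC50 came from four-parameter fits of percent vehicle control.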
Background: Cellular ATP, detected with luciferase, serves as a proxy for viable cell number.

The test system of test [2] is SKBR3 (PI3Kα wild type) cells. The test is described as follows: CellTiter-Glo 2.0 luminescent cell viability assay, 72 hours, SKBR3 cells. It counts as cell-based. The following applies: SKBR3 (PI3Kα wild type) cells, CellTiter-Glo, approximately 72 hours, read-out: SKBR3 (WT) Viability IC50. In outline:
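Viability measured via CTG luminescence following roughly 72 hours of compound exposure at 37° C. Dosing used a 10 um starting concentration diluted 1:4 over 10 points; percent-of-vehicle data fitted with a variable-slope four-parameter model for IC50.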

pIC50: −log10 of the molar value. Where two headings read alike, the source gives them in different places. A value given as a limit tells only on which side of the number the result lay.

`Cc1cc([C@@H](C)Nc2ccccc2C(=O)O)c2nc(N3C[C@H]4C[C@@H]3CN4c3ccc(C#N)cc3)c(C#N)c(=O)n2c1` [Example 11-174, 2-(((R)-1-(3-cyano-2-((1R,4R)-5-(4-cyanophenyl)-2,5-diazabicyclo[2.2.1]heptan-2-yl)-7-methyl-4-oxo-4H-pyrido[1,2-a]pyrimidin-9-yl)ethyl)amino)benzoic acid]: the pIC50 in test [1] (Homo sapiens, T47D, 72 h) is 6.05; in test [2] (Homo sapiens, SK-BR-3, 72 h) it was below 5.00.
The like results for `Cc1cc([C@@H](C)Nc2ccccc2C(=O)O)c2nc(N3C[C@@H]4C[C@H]3CN4c3ccc(C#N)cc3)c(C#N)c(=O)n2c1` [Example 11-175, 2-(((R)-1-(3-cyano-2-((1S,4S)-5-(4-cyanophenyl)-2,5-diazabicyclo[2.2.1]heptan-2-yl)-7-methyl-4-oxo-4H-pyrido[1,2-a]pyrimidin-9-yl)ethyl)amino)benzoic acid] were, in that order, 5.52 and below 5.00.
The like results for `Cc1cc([C@@H](C)Nc2ccccc2C(=O)O)c2nc(N3C[C@H]4C[C@@H]3CN4c3ccc(C#N)cc3)c(C)c(=O)n2c1` [Example 11-176, 2-(((R)-1-(2-((1R,4R)-5-(4-cyanophenyl)-2,5-diazabicyclo[2.2.1]heptan-2-yl)-3,7-dimethyl-4-oxo-4H-pyrido[1,2-a]pyrimidin-9-yl)ethyl)amino)benzoic acid] were, in that order, 6.14 and below 5.00.
The like results for `Cc1cc([C@@H](C)Nc2ccccc2C(=O)O)c2nc(N3C[C@@H]4C[C@H]3CN4c3ccc(C#N)cc3)c(C)c(=O)n2c1` [Example 11-177, 2-(((R)-1-(2-((1S,4S)-5-(4-cyanophenyl)-2,5-diazabicyclo[2.2.1]heptan-2-yl)-3,7-dimethyl-4-oxo-4H-pyrido[1,2-a]pyrimidin-9-yl)ethyl)amino)benzoic acid] were, in that order, 5.80 and below 5.00.
Turning to `Cc1cc([C@@H](C)Nc2ccccc2C(=O)O)c2nc(N3C4CNCC3C4)c(C#N)c(=O)n2c1` [Example 11-178, 2-(((1R)-1-(2-(3,6-diazabicyclo[3.1.1]heptan-6-yl)-3-cyano-7-methyl-4-oxo-4H-pyrido[1,2-a]pyrimidin-9-yl)ethyl)amino)benzoic acid], the negative logarithm of the IC50 (pIC50) was at most 5.00 in test [1] (Homo sapiens, T47D, 72 h) and below 5.00 in test [2] (Homo sapiens, SK-BR-3, 72 h).
The like results for `Cc1cc([C@@H](C)Nc2ccccc2C(=O)O)c2nc(N3C4CC3CN(c3ccc(C#N)cc3)C4)c(C#N)c(=O)n2c1` [Example 11-179, 2-(((1R)-1-(3-cyano-2-(3-(4-cyanophenyl)-3,6-diazabicyclo[3.1.1]heptan-6-yl)-7-methyl-4-oxo-4H-pyrido[1,2-a]pyrimidin-9-yl)ethyl)amino)benzoic acid] were, in that order, 5.82 and below 5.00.
The like results for `Cc1cc([C@@H](C)Nc2ccccc2C(=O)O)c2nc(N3C4CNCC3C4)c(C)c(=O)n2c1` [Example 11-180, 2-(((1R)-1-(2-(3,6-diazabicyclo[3.1.1]heptan-6-yl)-3,7-dimethyl-4-oxo-4H-pyrido[1,2-a]pyrimidin-9-yl)ethyl)amino)benzoic acid] were, in that order, below 5.00 and below 5.00.
Take `Cc1cc([C@@H](C)Nc2ccccc2C(=O)O)c2nc(N3C4CC3CN(c3ccc(C#N)cc3)C4)c(C)c(=O)n2c1` [Example 11-181, 2-(((1R)-1-(2-(3-(4-cyanophenyl)-3,6-diazabicyclo[3.1.1]heptan-6-yl)-3,7-dimethyl-4-oxo-4H-pyrido[1,2-a]pyrimidin-9-yl)ethyl)amino)benzoic acid]: the pIC50 was below 5.00 in test [1] (Homo sapiens, T47D, 72 h) and below 5.00 in test [2] (Homo sapiens, SK-BR-3, 72 h).
With `Cc1cc([C@@H](C)Nc2ccccc2C(=O)O)c2nc(N3C4CCC3CN(c3ccc(C#N)cc3)C4)c(C#N)c(=O)n2c1` [Example 11-182, 2-(((1R)-1-(3-cyano-2-(3-(4-cyanophenyl)-3,8-diazabicyclo[3.2.1]octan-8-yl)-7-methyl-4-oxo-4H-pyrido[1,2-a]pyrimidin-9-yl)ethyl)amino)benzoic acid], the pIC50 in test [1] (Homo sapiens, T47D, 72 h) is 6.62; in test [2] (Homo sapiens, SK-BR-3, 72 h) it was below 5.00.
The like results for `Cc1cc([C@@H](C)Nc2ccccc2C(=O)O)c2nc(N3C4CCC3CN(c3ccc(C#N)cc3)C4)c(C)c(=O)n2c1` [Example 11-183, 2-(((1R)-1-(2-(3-(4-cyanophenyl)-3,8-diazabicyclo[3.2.1]octan-8-yl)-3,7-dimethyl-4-oxo-4H-pyrido[1,2-a]pyrimidin-9-yl)ethyl)amino)benzoic acid] were, in that order, 6.71 and below 5.00.
On to `Cc1cc([C@@H](C)Nc2ccccc2C(=O)O)c2nc(N3CCN(c4cn(C)nc4C#N)CC3)c(C#N)c(=O)n2c1` [Example 11-184, (R)-2-((1-(3-cyano-2-(4-(3-cyano-1-methyl-1H-pyrazol-4-yl)piperazin-1-yl)-7-methyl-4-oxo-4H-pyrido[1,2-a]pyrimidin-9-yl)ethyl)amino)benzoic acid], for which the negative-log IC50 (pIC50) in test [1] (Homo sapiens, T47D, 72 h) is 6.43; in test [2] (Homo sapiens, SK-BR-3, 72 h), below 5.00.
The like results for `Cc1cc([C@@H](C)Nc2ccccc2C(=O)O)c2nc(N3CCN(c4cn(C)nc4C#N)CC3)c(C)c(=O)n2c1` [Example 11-185, (R)-2-((1-(2-(4-(3-cyano-1-methyl-1H-pyrazol-4-yl)piperazin-1-yl)-3,7-dimethyl-4-oxo-4H-pyrido[1,2-a]pyrimidin-9-yl)ethyl)amino)benzoic acid] were, in that order, 6.91 and below 5.00.
The like results for `Cc1cc([C@@H](C)Nc2ccccc2C(=O)O)c2nc(N3CCN(C4CCOCC4)CC3)c(C#N)c(=O)n2c1` [Example 11-186, (R)-2-((1-(3-cyano-7-methyl-4-oxo-2-(4-(tetrahydro-2H-pyran-4-yl)piperazin-1-yl)-4H-pyrido[1,2-a]pyrimidin-9-yl)ethyl)amino)benzoic acid] were, in that order, 6.22 and below 5.00.
The like results for `Cc1cc([C@@H](C)Nc2ccccc2C(=O)O)c2nc(N3CCN(C4CCOCC4)CC3)c(C)c(=O)n2c1` [Example 11-187, (R)-2-((1-(3,7-dimethyl-4-oxo-2-(4-(tetrahydro-2H-pyran-4-yl)piperazin-1-yl)-4H-pyrido[1,2-a]pyrimidin-9-yl)ethyl)amino)benzoic acid] were, in that order, 6.39 and below 5.00.
Turning to `Cc1cc([C@@H](C)Nc2ccccc2C(=O)O)c2nc(N3Cc4cc(F)c(F)cc4C3)c(C)c(=O)n2c1` [Example 11-188, (R)-2-((1-(2-(5,6-difluoroisoindolin-2-yl)-3,7-dimethyl-4-oxo-4H-pyrido[1,2-a]pyrimidin-9-yl)ethyl)amino)benzoic acid], the negative logarithm of the IC50 (pIC50) in test [1] was 6.82; in test [2], below 5.00.
With `Cc1cc([C@@H](C)Nc2ccccc2C(=O)O)c2nc(N3C4CCC3CC(F)(F)C4)c(C)c(=O)n2c1` [Example 11-189, 2-(((1R)-1-(2-(3,3-difluoro-8-azabicyclo[3.2.1]octan-8-yl)-3,7-dimethyl-4-oxo-4H-pyrido[1,2-a]pyrimidin-9-yl)ethyl)amino)benzoic acid], the pIC50 in test [1] (Homo sapiens, T47D, 72 h) was 6.58; in test [2] (Homo sapiens, SK-BR-3, 72 h), below 5.00.
The like results for `Cc1cc([C@@H](C)Nc2ccccc2C(=O)O)c2nc(N3CC4(CN(c5ccc(C#N)cc5)C4)C3)c(C#N)c(=O)n2c1` [Example 11-190, (R)-2-((1-(3-cyano-2-(6-(4-cyanophenyl)-2,6-diazaspiro[3.3]heptan-2-yl)-7-methyl-4-oxo-4H-pyrido[1,2-a]pyrimidin-9-yl)ethyl)amino)benzoic acid] were, in that order, 5.96 and below 5.00.
The like results for `Cc1cc([C@@H](C)Nc2ccccc2C(=O)O)c2nc(N3CC4(CN(c5ccc(C#N)cc5)C4)C3)c(C)c(=O)n2c1` [Example 11-191, (R)-2-((1-(2-(6-(4-cyanophenyl)-2,6-diazaspiro[3.3]heptan-2-yl)-3,7-dimethyl-4-oxo-4H-pyrido[1,2-a]pyrimidin-9-yl)ethyl)amino)benzoic acid] were, in that order, 5.98 and below 5.00.
The like results for `Cc1cc([C@@H](C)Nc2ccccc2C(=O)O)c2nc(NC[C@@H]3CCOC3)c(C#N)c(=O)n2c1` [Example 11-192, 2-(((R)-1-(3-cyano-7-methyl-4-oxo-2-((((S)-tetrahydrofuran-3-yl)methyl)amino)-4H-pyrido[1,2-a]pyrimidin-9-yl)ethyl)amino)benzoic acid] were, in that order, 5.61 and below 5.00.
Consider `Cc1cc([C@@H](C)Nc2ccccc2C(=O)O)c2nc(NC[C@H]3CCOC3)c(C#N)c(=O)n2c1` [Example 11-193, 2-(((R)-1-(3-cyano-7-methyl-4-oxo-2-((((R)-tetrahydrofuran-3-yl)methyl)amino)-4H-pyrido[1,2-a]pyrimidin-9-yl)ethyl)amino)benzoic acid], for which the pIC50 in test [1] (Homo sapiens, T47D, 72 h) is 5.92; in test [2] (Homo sapiens, SK-BR-3, 72 h), below 5.00.
The like results for `Cc1cc([C@@H](C)Nc2ccccc2C(=O)O)c2nc(NCC3CCOC3)c(C#N)c(=O)n2c1` (stereo partly drawn) [Example 11-194, 2-(((1R)-1-(3-cyano-7-methyl-4-oxo-2-(((tetrahydrofuran-3-yl)methyl)amino)-4H-pyrido[1,2-a]pyrimidin-9-yl)ethyl)amino)benzoic acid] were, in that order, 6.23 and below 5.00.
With `Cc1cc([C@@H](C)Nc2ccccc2C(=O)O)c2nc(NC[C@@H]3CCOC3)c(C)c(=O)n2c1` [Example 11-195, 2-(((R)-1-(3,7-dimethyl-4-oxo-2-((((S)-tetrahydrofuran-3-yl)methyl)amino)-4H-pyrido[1,2-a]pyrimidin-9-yl)ethyl)amino)benzoic acid], the negative-log IC50 (pIC50) is 6.42 in test [1] (Homo sapiens, T47D, 72 h) and below 5.00 in test [2] (Homo sapiens, SK-BR-3, 72 h).
